These results are taken from article PMC6155227 (Molecules : A Journal of Synthetic Chemistry and Natural …, 2017).

Data set [1] relates to H5N1(A/Vietnam/1203/2004) strain. In words: microbe, parasite or virus in culture. It is filed as cell-based, influenza virus A/Vietnam/1203/2004 (H5N1). The settings on record: Influenza A virus, H5N1, MDCK.
The subject of data set [2] is MDCK cells. The settings on record: dog.
The test system of data set [3] is porcine reproductive and respiratory syndrome virus (PRRSV). As to conditions: cited from earlier work.
Data set [4] relates to avian influenza virus. As to conditions: mouse, in vivo; cited from earlier work.

The term inhibition denotes the drop in the measured response relative to a control, in per cent. Take `CCCC(=O)c1c(O)c(CC2=C(O)C(C)(C)C(O)=C(C(C)=O)C2=O)c(O)c(CC2=C(O)C(C)(C)C(O)=C(C(C)=O)C2=O)c1O` [Filixic acid ABA, filixic acid ABA]: the inhibition at 100 µM in data set [1] (read-out: inhibition rate) was < 50%. This compound yielded a maximal non-cytotoxic concentration in data set [2] of 100 µM.
`CCCC(=O)c1c(O)c(C)c(O)c(CC2=C(O)C(C)(C)C(O)=C(C(C)=O)C2=O)c1O` [Flavaspidic acid AB, flavaspidic acid AB]: in data set [3], the virus replication result was “inhibit replication”.
The EC50 is the midpoint of the concentration-response curve. Take `CCCC(=O)c1c(O)c(CC2=C(O)C(C)(C)C(O)=C(C(C)=O)C2=O)c(O)c(Cc2c(O)c(CC3=C(O)C(C)(C)C(O)=C(C(C)=O)C3=O)c(O)c(C(=O)CCC)c2O)c1O` [Dryocrassin ABBA, dryocrassin ABBA]: the EC50 in data set [1] (72 h, read-out: EC50 anti-influenza virus activity) came to 16.6 µM. Besides, the “50% toxicity concentration (TC50)” value in data set [2] is given as “greater than 400 μM”. Besides, the “protection of infected mice” value in data set [4] was “protect mice infected with avian influenza virus”.
